According to patent US20220331303A1, “USE OF AN OREXIN 2 RECEPTOR AGONIST FOR THE TREATMENT OF EXCESSIVE SLEEPINESS” (Takeda Pharmaceutical Company Limited, priority 2019, published 2022):
“And” between values parts separate entries of the source, which are not always exact repeats. Identical values can stand only once.

Test system: sleep-deprived healthy volunteers
Experiment: Maintenance of wakefulness test (MWT) in sleep-deprived healthy volunteers
Assay type: in vivo, human
Protocol: The primary objective of this study was to determine the effect of Compound A (methyl (2R,3S)-3-((methylsulfonyl)amino)-2-(((cis-4-phenylcyclohexyl)oxy)methyl)piperidine-1-carboxylate), 44 mg (low dose [LD]) and 112 mg (high dose [HD]), after a single IV dose (compared to placebo) on promoting wakefulness as measured by sleep latency on the MWT (performed at approximately 2, 4, 6, and 8 hours post-dosing starting at approximately 1:00 AM and then at approximate times of 3:00, 5:00, and 7:00 AM) in sleep-deprived healthy volunteers.
This was a phase 1b, single-center, randomized, double-blind, double-dummy, placebo- and active-controlled, 4-period Williams design crossover study to evaluate the PK, PD, and safety of Compound A in sleep-deprived healthy volunteers. Compound A was administered as a 9-hour IV infusion.
Healthy adult male subjects aged 18 to 40 years, inclusive, who satisfied the inclusion and exclusion criteria were enrolled in the trial. On Day 1 of treatment period 1, eligible subjects were equally randomized to 4 treatment sequence groups (sequence 1 to 4) which defined the order of administration for Compound A LD, Compound A HD (both delivered as a 9-hour IV infusion), modafinil 300 mg, and placebo.
During the day before dosing on Day 1, participants were administered the KSS at scheduled timepoints. A practice MWT session was performed on Day 1 treatment period 1 (only once during the entire study) to familiarize subjects with the procedures. Study drug was administered in the clinic in the evening on Day 1 of each treatment period. Subjects underwent the MWT and KSS at specified timepoints after the start of the infusion. Subjects were required to stay awake between the MWT tests. Following completion of the IV infusion on Day 2, subjects underwent an additional MWT test. When the final MWT test and cognitive testing were completed, subjects were allowed to sleep (recovery sleep) for approximately 6 hours. PSG recording was collected during this time. Subjects were discharged from the unit after completion on Day 2 with continuing actigraphy upon discharge (to begin on Day −6 before the next treatment period). The interval between each subsequent treatment period was at least 7 days to ensure that the subject's circadian rhythm had returned to a normal cycle. Subject's vital signs, including BP, were monitored during the dosing and testing period. Blood samples for determination of Compound A plasma concentrations were collected at specified timepoints on Days 1 and 2 of each treatment period. Subjects completed the Columbia-Suicide Severity Rating Scale (C-SSRS) during screening, before study drug administration, and before discharge on Day 2 of each treatment period.
Primary endpoint: Latency for each MWT, defined as time to sleep onset.

[1] = Compound A 44 mg (LD), 2 hours post infusion start
[2] = Compound A 44 mg (LD), 4 hours post infusion start
[3] = Compound A 44 mg (LD), 6 hours post infusion start
[4] = Compound A 44 mg (LD), 8 hours post infusion start
[5] = Compound A 44 mg (LD), average overall during infusion
[6] = Compound A 44 mg (LD, printed ED), 2 hours post infusion start
[7] = Compound A 44 mg (LD, printed ED), 4 hours post infusion start
[8] = Compound A 44 mg (LD, printed ED), 8 hours post infusion start
[9] = Compound A 44 mg, after the end of infusion (1 hour post end of infusion)
[10] = Compound A 112 mg (HD), 2 hours post infusion start
[11] = Compound A 112 mg (HD), 4 hours post infusion start

**Q.** How did the “Average total wake time (MWT), LS mean difference vs placebo” value (Compound A 44 mg) turn out when `COC(=O)N1CCC[C@H](NS(C)(=O)=O)[C@@H]1CO[C@H]1CC[C@@H](c2ccccc2)CC1` [Compound A, methyl (2R,3S)-3-((methylsulfonyl)amino)-2-(((cis-4-phenylcyclohexyl)oxy)methyl)piperidine-1-carboxylate] was run?
**A.** Its value is 16.36 min.

**Q.** And the “Total sleep time (MWT) compared to placebo” value (Compound A 44 mg)?
**A.** The value was “not significantly different than placebo”.

**Q.** What about the “Latency to Sleep Onset on MWT, LS Mean” value [1] of the same molecule?
**A.** Its value is 35.74 min.

**Q.** And the “Latency to Sleep Onset on MWT, LS Mean Difference vs placebo” value [1]?
**A.** The value was 20.06 min.

**Q.** And the “Stage N1 Duration (MWT), LS Mean” value [1]?
**A.** The value was 0.13 min.

**Q.** What about the “Stage N1 Duration (MWT), LS Mean Difference vs placebo” value [1] of the same molecule?
**A.** The value was -1.02 min.

**Q.** What about the “Stage N2 Duration (MWT), LS Mean” value [1] of the same molecule?
**A.** Its value is 0.24 min.

**Q.** And the “Stage N2 Duration (MWT), LS Mean Difference vs placebo” value [1]?
**A.** Its value is -0.61 min.

**Q.** And the “Total Microsleeps (MWT), LS Mean” value [1]?
**A.** The value was 0.38.

**Q.** And the “Total Microsleeps (MWT), LS Mean Difference vs placebo” value [1]?
**A.** The value was −1.42.

**Q.** What about the “Duration Total Microsleeps (MWT), LS Mean” value [2] of the same molecule?
**A.** Its value is 10.39 s.

**Q.** What about the “Duration Total Microsleeps (MWT), LS Mean Difference vs placebo” value [2] of the same molecule?
**A.** Its value is -1.91 s.

**Q.** And the “Stage N1 Duration (MWT), LS Mean” value [2]?
**A.** Its value is 0.52 min.

**Q.** And the “Stage N1 Duration (MWT), LS Mean Difference vs placebo” value [2]?
**A.** The value was -1.13 min.

**Q.** And the “Stage N2 Duration (MWT), LS Mean” value [2]?
**A.** The value was 0.51 min.

**Q.** What about the “Stage N2 Duration (MWT), LS Mean Difference vs placebo” value [2] of the same molecule?
**A.** The value was -0.64 min.

**Q.** What about the “Total Microsleeps (MWT), LS Mean” value [2] of the same molecule?
**A.** Its value is 2.21.

**Q.** And the “Total Microsleeps (MWT), LS Mean Difference vs placebo” value [2]?
**A.** Its value is −0.14.

**Q.** And the “Duration Total Microsleeps (MWT), LS Mean” value [3]?
**A.** Its value is 11.84 s.

**Q.** And the “Duration Total Microsleeps (MWT), LS Mean Difference vs placebo” value [3]?
**A.** Its value is 4.44 s.

**Q.** What about the “Latency to Sleep Onset on MWT, LS Mean” value [3] of the same molecule?
**A.** Its value is 20.71 min.

**Q.** What about the “Latency to Sleep Onset on MWT, LS Mean Difference vs placebo” value [3] of the same molecule?
**A.** The value was 14.56 min.

**Q.** What about the “Stage N1 Duration (MWT), LS Mean” value [3] of the same molecule?
**A.** Its value is 1.80 min.

**Q.** And the “Stage N1 Duration (MWT), LS Mean Difference vs placebo” value [3]?
**A.** The value was 0.65 min.

**Q.** And the “Stage N2 Duration (MWT), LS Mean” value [3]?
**A.** Its value is 2.63 min.

**Q.** What about the “Stage N2 Duration (MWT), LS Mean Difference vs placebo” value [3] of the same molecule?
**A.** The value was 2.13 min.

**Q.** What about the “Total Microsleeps (MWT), LS Mean” value [3] of the same molecule?
**A.** The value was 2.32.

**Q.** And the “Total Microsleeps (MWT), LS Mean Difference vs placebo” value [3]?
**A.** The value was 1.07.

**Q.** And the “Latency to Sleep Onset on MWT, LS Mean” value [4]?
**A.** Its value is 13.13 min.

**Q.** And the “Latency to Sleep Onset on MWT, LS Mean Difference vs placebo” value [4]?
**A.** Its value is 9.60 min.

**Q.** What about the “Stage N1 Duration (MWT), LS Mean” value [4] of the same molecule?
**A.** Its value is 1.57 min.

**Q.** What about the “Stage N1 Duration (MWT), LS Mean Difference vs placebo” value [4] of the same molecule?
**A.** The value was 0.42 min.

**Q.** What about the “Stage N2 Duration (MWT), LS Mean” value [4] of the same molecule?
**A.** The value was 3.74 min.

**Q.** What about the “Stage N2 Duration (MWT), LS Mean Difference vs placebo” value [4] of the same molecule?
**A.** Its value is 2.64 min.

**Q.** And the “Total Microsleeps (MWT), LS Mean” value [4]?
**A.** Its value is 2.10.

**Q.** What about the “Total Microsleeps (MWT), LS Mean Difference vs placebo” value [4] of the same molecule?
**A.** Its value is 0.80.

**Q.** What about the “Duration Total Microsleeps (MWT), LS Mean” value [5] of the same molecule?
**A.** The value was 8.89 s.

**Q.** And the “Duration Total Microsleeps (MWT), LS Mean Difference vs placebo” value [5]?
**A.** Its value is -0.18 s.

**Q.** And the “Latency to Sleep Onset on MWT, LS Mean” value [5]?
**A.** Its value is 25.40 min and 25.40 (1.955) min.

**Q.** And the “Latency to Sleep Onset on MWT, LS Mean Difference vs placebo” value [5]?
**A.** The value was 16.79 min and 16.8 min and 16.79 (2.682) min.

**Q.** What about the “Stage N1 Duration (MWT), LS Mean” value [5] of the same molecule?
**A.** Its value is 1.01 min.

**Q.** And the “Stage N1 Duration (MWT), LS Mean Difference vs placebo” value [5]?
**A.** Its value is -0.27 min.

**Q.** And the “Stage N2 Duration (MWT), LS Mean” value [5]?
**A.** The value was 1.78 min.

**Q.** What about the “Stage N2 Duration (MWT), LS Mean Difference vs placebo” value [5] of the same molecule?
**A.** The value was 0.88 min.

**Q.** What about the “Total Microsleeps (MWT), LS Mean” value [5] of the same molecule?
**A.** The value was 1.75.

**Q.** And the “Total Microsleeps (MWT), LS Mean Difference vs placebo” value [5]?
**A.** Its value is 0.08.

**Q.** What about the “Duration Total Microsleeps (MWT), LS Mean” value [6] of the same molecule?
**A.** The value was 1.61 s.

**Q.** What about the “Duration Total Microsleeps (MWT), LS Mean Difference vs placebo” value [6] of the same molecule?
**A.** Its value is -7.19 s.

**Q.** What about the “Latency to Sleep Onset on MWT, LS Mean” value [7] of the same molecule?
**A.** The value was 32.04 min.

**Q.** What about the “Latency to Sleep Onset on MWT, LS Mean Difference vs placebo” value [7] of the same molecule?
**A.** Its value is 22.94 min.

**Q.** And the “Duration Total Microsleeps (MWT), LS Mean” value [8]?
**A.** Its value is 11.72 s.

**Q.** And the “Duration Total Microsleeps (MWT), LS Mean Difference vs placebo” value [8]?
**A.** The value was 3.92 s.

**Q.** What about the “Latency to Sleep Onset on MWT, LS Mean (SE)” value [9] of the same molecule?
**A.** Its value is 2.49 (2.241).

**Q.** And the “Latency to Sleep Onset on MWT, LS Mean Difference vs placebo, Estimate (SE)” value [9]?
**A.** The value was −2.16 (2.752).

**Q.** What about the “Average total wake time (MWT), LS mean difference vs placebo” value (Compound A 112 mg) of the same molecule?
**A.** The value was 29.59 min.

**Q.** And the “Sleep latency on the MWT during infusion, stayed across several sessions” value (Compound A 112 mg)?
**A.** Its value is 40 min.

**Q.** What about the “Total sleep time (MWT), LS mean difference vs placebo” value (Compound A 112 mg) of the same molecule?
**A.** Its value is -2.56 min.

**Q.** What about the “Duration Total Microsleeps (MWT), LS Mean” value [10] of the same molecule?
**A.** The value was -0.02 s.

**Q.** What about the “Duration Total Microsleeps (MWT), LS Mean Difference vs placebo” value [10] of the same molecule?
**A.** Its value is -8.82 s.

**Q.** And the “Latency to Sleep Onset on MWT, LS Mean” value [10]?
**A.** The value was 40.02 min.

**Q.** What about the “Latency to Sleep Onset on MWT, LS Mean Difference vs placebo” value [10] of the same molecule?
**A.** The value was 24.35 min.

**Q.** And the “Stage N1 Duration (MWT), LS Mean” value [10]?
**A.** Its value is -0.04 min.

**Q.** What about the “Stage N1 Duration (MWT), LS Mean Difference vs placebo” value [10] of the same molecule?
**A.** The value was -1.19 min.

**Q.** And the “Stage N2 Duration (MWT), LS Mean” value [10]?
**A.** Its value is 0.00 min.

**Q.** And the “Stage N2 Duration (MWT), LS Mean Difference vs placebo” value [10]?
**A.** The value was -0.85 min.

**Q.** And the “Total Microsleeps (MWT), LS Mean” value [10]?
**A.** Its value is 0.00.

**Q.** And the “Total Microsleeps (MWT), LS Mean Difference vs placebo” value [10]?
**A.** The value was −1.80.

**Q.** What about the “Duration Total Microsleeps (MWT), LS Mean” value [11] of the same molecule?
**A.** The value was -0.02 s.

**Q.** And the “Duration Total Microsleeps (MWT), LS Mean Difference vs placebo” value [11]?
**A.** The value was -12.3 s.

**Q.** What about the “Latency to Sleep Onset on MWT, LS Mean” value [11] of the same molecule?
**A.** The value was 40.05 min.

**Q.** And the “Latency to Sleep Onset on MWT, LS Mean Difference vs placebo” value [11]?
**A.** The value was 30.95 min.

**Q.** What about the “Stage N1 Duration (MWT), LS Mean” value [11] of the same molecule?
**A.** The value was -0.04 min.

**Q.** And the “Stage N1 Duration (MWT), LS Mean Difference vs placebo” value [11]?
**A.** Its value is -1.69 min.

**Q.** What about the “Stage N2 Duration (MWT), LS Mean” value [11] of the same molecule?
**A.** The value was 0.00 min.
